Assay results as given in US11566007B2, “Ras inhibitors” (Revolution Medicines, Inc., priority 2019, dated 2023).
“And” between values parts separate entries of the source, which are not always exact repeats. Equal entries are not always repeated. Where two headings read alike, the source gives them in different places.

Experiments:
[1] = target: KRAS G13D (Homo sapiens (Human), UniProt P01116+P62937, G13D); assay: Ras-Raf (BRAF RBD) disruption / FRET / MOA assay, KRAS G13D; type: biochemical; conditions: read-out: IC50* KRAS G13D FRET data
Procedure, shortened: (§1)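 Ternary complex formation (Ras–compound–cyclophilin A) displacing BRAF RBD, monitored by TR-FRET. Three hours at 25° C with compound (top 30 μM final), then 1.5 h with the labelled antibodies. Lower ratio than DMSO indicates disruption; IC50 reported.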

[2] = target: KRAS G12V (Homo sapiens (Human), UniProt P01116+P62937, G12V); assay: Ras-Raf (BRAF RBD) disruption / FRET / MOA assay, KRAS G12V; type: biochemical; conditions: read-out: IC50* KRAS G12V FRET data
Procedure, shortened: as §1

[3] = target: K-Ras G12C (Homo sapiens (Human), UniProt P01116+P62937, G12C); assay: Ras-Raf (BRAF RBD) disruption / FRET / MOA assay, KRAS G12C; type: biochemical
Procedure, shortened: as §1

[4] = target: KRAS G12D (Homo sapiens (Human), UniProt P01116+P62937, G12D); assay: Ras-Raf (BRAF RBD) disruption / FRET / MOA assay, KRAS G12D; type: biochemical; conditions: Ras-Raf disruption/FRET/MOA assay; class symbols; read-out: KRAS G12D FRET data IC50
Procedure, shortened: as §1

[5] = target: NRAS G12C (Homo sapiens (Human), UniProt P01111+P62937, G12C); assay: Ras-Raf (BRAF RBD) disruption / FRET / MOA assay, NRAS G12C; type: biochemical; conditions: read-out: IC50* NRAS G12C FRET data
Procedure, shortened: as §1

[6] = test system: NCI-H358 (K-Ras G12C); assay: CellTiter-Glo cell viability assay, NCI-H358; type: cell-based, human; conditions: NCI-H358, 5-day treatment
Procedure, shortened: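 Four-parameter logistic fits were applied to luminescence data normalized against DMSO-treated wells. Readings were taken on day 5 following direct compound addition, after roughly 30 minutes at room temperature.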

[7] = test system: NCI-H358 cells (K-Ras G12C); assay: Potency assay: pERK in NCI-H358 cells; type: cell-based, human; conditions: Homo sapiens, NCI-H358; H358 KRAS G12C; read-out: pERK EC50
Procedure, shortened: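 Compounds are dosed as ten 3-fold dilutions from a 10 mM DMSO stock, in duplicate, and left on cells for 4 h at 37 °C, 5% CO2. Phospho-ERK1/2 is then quantified by AlphaLISA SureFire Ultra or In-Cell Western, and IC50 is derived from a 4-parameter sigmoid against log concentration.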

[8] = target: KRAS WT (Homo sapiens (Human), UniProt P01116+P62937); assay: Ras-Raf (BRAF RBD) disruption / FRET / MOA assay, KRAS WT; type: biochemical; conditions: read-out: IC50* KRAS WT FRET data
Procedure, shortened: as §1

[9] = target: K-Ras G13C (Homo sapiens (Human), UniProt P01116+P62937, G13C); assay: Ras-Raf (BRAF RBD) disruption / FRET / MOA assay, KRAS G13C; type: biochemical
Procedure, shortened: as §1

[10] = target: KRAS G12S (Homo sapiens (Human), UniProt P01116+P62937, G12S); assay: Ras-Raf (BRAF RBD) disruption / FRET / MOA assay, KRAS G12S; type: biochemical; conditions: Ras-Raf disruption/FRET/MOA assay; class symbols; read-out: KRAS G12S FRET data IC50
Procedure, shortened: as §1

[11] = KRAS G12C, Ras-Raf disruption/FRET/MOA assay, read-out: IC50* KRAS G12C FRET data
[12] = KRAS G13C, Ras-Raf disruption/FRET/MOA assay, read-out: IC50* KRAS G13C FRET data
[13] = Homo sapiens, NCI-H358, 120 h, class symbols, read-out: Additional H358 Cell Viability assay data (K-Ras G12C, IC50)

Sequence of KRAS G13D (P01116-2 other isoform, or with tags, fused parts or gaps G13D): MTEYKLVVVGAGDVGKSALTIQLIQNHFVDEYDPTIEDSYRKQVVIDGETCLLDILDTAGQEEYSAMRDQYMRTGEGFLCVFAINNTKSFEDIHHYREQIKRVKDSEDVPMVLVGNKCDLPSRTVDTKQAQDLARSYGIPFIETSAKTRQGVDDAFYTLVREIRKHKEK
Sequence of KRAS G13D (P62937 whole entry): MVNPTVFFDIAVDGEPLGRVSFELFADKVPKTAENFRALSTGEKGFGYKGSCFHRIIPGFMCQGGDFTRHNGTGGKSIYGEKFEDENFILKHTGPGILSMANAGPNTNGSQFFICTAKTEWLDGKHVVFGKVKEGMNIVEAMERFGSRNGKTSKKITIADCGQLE
Sequence of KRAS WT (P01116-2 other isoform, or with tags, fused parts or gaps): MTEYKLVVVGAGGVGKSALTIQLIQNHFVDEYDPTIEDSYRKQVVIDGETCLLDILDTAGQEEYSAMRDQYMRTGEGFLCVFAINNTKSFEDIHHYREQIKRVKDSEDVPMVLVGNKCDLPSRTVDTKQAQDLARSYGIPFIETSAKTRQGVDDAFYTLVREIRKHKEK
Sequence of KRAS WT (P62937 whole entry): as the sequence (P62937 whole entry) above
Sequence of KRAS G12D (P01116-2 other isoform, or with tags, fused parts or gaps G12D): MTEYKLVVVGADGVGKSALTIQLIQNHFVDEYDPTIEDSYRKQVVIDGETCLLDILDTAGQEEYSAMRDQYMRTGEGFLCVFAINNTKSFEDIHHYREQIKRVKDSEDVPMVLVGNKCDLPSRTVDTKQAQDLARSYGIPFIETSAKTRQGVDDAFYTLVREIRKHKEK
Sequence of KRAS G12D (P62937 whole entry): as the sequence (P62937 whole entry) above
Sequence of K-Ras G12C (P01116-2 other isoform, or with tags, fused parts or gaps G12C): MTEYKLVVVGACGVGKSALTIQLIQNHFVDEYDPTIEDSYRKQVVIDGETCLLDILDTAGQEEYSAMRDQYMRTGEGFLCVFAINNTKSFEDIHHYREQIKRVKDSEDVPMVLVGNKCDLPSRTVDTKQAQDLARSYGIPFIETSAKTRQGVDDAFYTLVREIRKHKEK
Sequence of K-Ras G12C (P62937 whole entry): as the sequence (P62937 whole entry) above
Sequence of KRAS G12S (P01116-2 other isoform, or with tags, fused parts or gaps G12S): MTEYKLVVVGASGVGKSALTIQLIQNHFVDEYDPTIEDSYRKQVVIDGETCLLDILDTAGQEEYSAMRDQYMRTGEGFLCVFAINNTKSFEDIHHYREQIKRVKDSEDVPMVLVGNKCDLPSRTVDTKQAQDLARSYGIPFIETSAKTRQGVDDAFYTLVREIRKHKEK
Sequence of KRAS G12S (P62937 whole entry): as the sequence (P62937 whole entry) above
Sequence of K-Ras G13C (P01116-2 other isoform, or with tags, fused parts or gaps G13C): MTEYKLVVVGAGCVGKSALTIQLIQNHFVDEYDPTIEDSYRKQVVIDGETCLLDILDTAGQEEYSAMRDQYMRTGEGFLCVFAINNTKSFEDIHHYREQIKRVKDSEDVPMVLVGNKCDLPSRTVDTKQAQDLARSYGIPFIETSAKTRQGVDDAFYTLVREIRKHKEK
Sequence of K-Ras G13C (P62937 whole entry): as the sequence (P62937 whole entry) above
Sequence of NRAS G12C (P01111 whole entry G12C): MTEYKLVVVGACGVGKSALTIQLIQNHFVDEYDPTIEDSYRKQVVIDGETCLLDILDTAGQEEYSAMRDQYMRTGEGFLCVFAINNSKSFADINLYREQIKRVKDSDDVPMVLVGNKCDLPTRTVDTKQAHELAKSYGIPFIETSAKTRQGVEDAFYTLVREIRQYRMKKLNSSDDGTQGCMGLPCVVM
Sequence of NRAS G12C (P62937 whole entry): as the sequence (P62937 whole entry) above
Sequence of KRAS G12V (P01116-2 other isoform, or with tags, fused parts or gaps G12V): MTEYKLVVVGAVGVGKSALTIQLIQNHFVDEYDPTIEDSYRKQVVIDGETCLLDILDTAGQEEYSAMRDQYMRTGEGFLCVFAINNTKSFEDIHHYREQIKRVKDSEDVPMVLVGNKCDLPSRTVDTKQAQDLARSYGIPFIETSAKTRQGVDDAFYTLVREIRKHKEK
Sequence of KRAS G12V (P62937 whole entry): as the sequence (P62937 whole entry) above

SMILES	IC50 [1]	IC50 [2]	IC50 [3, 11]	IC50 [4]	IC50 [5]	EC50 [7]	IC50 [8]	IC50 [9, 12]	IC50 [10]	IC50 [6, 13]	IC50 ([6]; class symbols, read-out: Additional H358 Cell Viability assay data (K-Ras G12C, IC50))	IC50 ([3]; with Cyclophilin A, BRAF RBD, read-out: FRET (K-Ras G12C) IC50)	IC50 ([6]; Homo sapiens, NCI-H358, 120 h, read-out: H358 Cell Viability (K-Ras G12C) IC50)	IC50 ([9]; with Cyclophilin A, BRAF RBD, read-out: FRET (K-Ras G13C) IC50)
CCn1c(-c2cccnc2[C@H](C)OC)c2c3cc(ccc31)-c1csc(n1)C[C@H](NC(=O)[C@H](C(C)C)N(C)C(=O)[C@H]1CCN(C(=O)C#CCN3CCOCC3)C1)C(=O)N1CCC[C@H](N1)C(=O)OCC(C)(C)C2 (atropisomer, axis not shown) [Example A186]	> 10 µM	1 to 10 µM and > 10 µM	0.01 to 0.1 µM and 1 to 10 µM	> 10 µM	0.01 to 0.1 µM and 1 to 10 µM	< 5 µM	> 10 µM	> 10 µM and 1 to 10 µM	1 to 10 µM and > 10 µM			0.038 µM	0.005 µM	0.94 µM
CO[C@@H](C)c1ncccc1-c1c2c3cc(ccc3n1C)-c1cccc(c1)C[C@H](NC(=O)[C@H](C(C)C)N(C)C(=O)[C@H]1CCN(C(=O)C#CCN3CCOCC3)C1)C(=O)N1CCC[C@H](N1)C(=O)OCC(C)(C)C2 (atropisomer, axis not shown) [Example A192]	> 10 µM	> 10 µM	0.1 to 1 µM and 1 to 10 µM	> 10 µM	0.1 to 1 µM and 1 to 10 µM	< 5 µM	> 10 µM	> 10 µM	> 10 µM	0.1 to 1 µM				
C=CC(=O)N1CC[C@H](C(=O)N(C)[C@H](C(=O)NN2Cc3cc(O)cc(c3)-c3ccc4c(c3)c(c(-c3cccnc3[C@H](C)OC)n4CC)CC(C)(C)COC(=O)[C@@H]3CCCN(N3)C2=O)C(C)C)C1 (atropisomer, axis not shown) [Example A233]	0.1 to 1 µM	0.01 to 0.1 µM	0.01 to 0.1 µM	0.1 to 1 µM	0.01 to 0.1 µM	< 5 µM	0.01 to 0.1 µM	0.01 to 0.1 µM	0.01 to 0.1 µM	0.01 to 0.1 µM				

Now from value to molecule, other results behind:

IC50 [1]	IC50 [2]	IC50 [3, 11]	IC50 [4]	IC50 [5]	EC50 [7]	IC50 [8]	IC50 [9, 12]	IC50 [10]	IC50 [6, 13]	IC50 ([6]; class symbols, read-out: Additional H358 Cell Viability assay data (K-Ras G12C, IC50))	SMILES	IC50 ([3]; with Cyclophilin A, BRAF RBD, read-out: FRET (K-Ras G12C) IC50)	IC50 ([6]; Homo sapiens, NCI-H358, 120 h, read-out: H358 Cell Viability (K-Ras G12C) IC50)	IC50 ([9]; with Cyclophilin A, BRAF RBD, read-out: FRET (K-Ras G13C) IC50)
0.1 to 1 µM and 1 to 10 µM	0.1 to 1 µM and 0.01 to 0.1 µM	0.1 to 1 µM and < 0.01 µM	1 to 10 µM and 0.1 to 1 µM	0.1 to 1 µM and < 0.01 µM	< 5 µM	1 to 10 µM and 0.01 to 0.1 µM	0.01 to 0.1 µM and 1 to 10 µM	0.1 to 1 µM and 0.01 to 0.1 µM	0.01 to 0.1 µM	< 0.01 µM	C=CC(=O)N1CC[C@H](C(=O)N(C)[C@H](C(=O)N[C@H]2Cc3cc(O)cc(c3)-c3ccc4c(c3)c(c(-c3cnccc3[C@H](CC)OC)n4CC)CC(C)(C)COC(=O)[C@@H]3CCCN(N3)C2=O)C(C)C)C1 (atropisomer, axis not shown) [Example A194]			
> 10 µM	> 10 µM	0.01 to 0.1 µM	> 10 µM	0.1 to 1 µM	< 5 µM	> 10 µM	1 to 10 µM	> 10 µM	0.01 to 0.1 µM		CCn1c(-c2cccnc2[C@H](C)OC)c2c3cc(ccc31)-c1nsc(n1)C[C@H](NC(=O)[C@H](C(C)C)N(C)C(=O)[C@H]1CCN(C(=O)C#CCN3CCOCC3)C1)C(=O)N1CCC[C@H](N1)C(=O)OCC(C)(C)C2 (atropisomer, axis not shown) [Example A201]			
0.1 to 1 µM	0.1 to 1 µM	< 0.01 µM	1 to 10 µM	< 0.01 µM	< 5 µM	0.1 to 1 µM	0.01 to 0.1 µM	0.1 to 1 µM	< 0.01 µM		CCn1c(-c2cccnc2[C@H](C)OC)c2c3cc(ccc31)-c1cc(O)cc(c1)C[C@H](NC(=O)[C@H](C(C)C)N(C)C(=O)[C@H]1CCN(C(=O)C#CCN3[C@@H](C)COC[C@@H]3C)C1)C(=O)N1CCC[C@H](N1)C(=O)OCC(C)(C)C2 (atropisomer, axis not shown) [Example A244]			
0.1 to 1 µM	0.01 to 0.1 µM	< 0.01 µM	1 to 10 µM	< 0.01 µM	< 5 µM	0.1 to 1 µM	0.01 to 0.1 µM	0.1 to 1 µM	< 0.01 µM		CCn1c(-c2cccnc2[C@H](C)OC)c2c3cc(ccc31)-c1cc(O)cc(c1)C[C@H](NC(=O)[C@H](C(C)C)N(C)C(=O)[C@H]1CCN(C(=O)C#CCN3[C@H](C)COC[C@@H]3C)C1)C(=O)N1CCC[C@H](N1)C(=O)OCC(C)(C)C2 (atropisomer, axis not shown) [Example A245]			
